One assay concerns the target T1, HDAC6 human recombinant (Homo sapiens, UniProt Q9UBN7).
T1 construct: purchased Calbiochem 382180
T1 sequence (Q9UBN7 1-1215): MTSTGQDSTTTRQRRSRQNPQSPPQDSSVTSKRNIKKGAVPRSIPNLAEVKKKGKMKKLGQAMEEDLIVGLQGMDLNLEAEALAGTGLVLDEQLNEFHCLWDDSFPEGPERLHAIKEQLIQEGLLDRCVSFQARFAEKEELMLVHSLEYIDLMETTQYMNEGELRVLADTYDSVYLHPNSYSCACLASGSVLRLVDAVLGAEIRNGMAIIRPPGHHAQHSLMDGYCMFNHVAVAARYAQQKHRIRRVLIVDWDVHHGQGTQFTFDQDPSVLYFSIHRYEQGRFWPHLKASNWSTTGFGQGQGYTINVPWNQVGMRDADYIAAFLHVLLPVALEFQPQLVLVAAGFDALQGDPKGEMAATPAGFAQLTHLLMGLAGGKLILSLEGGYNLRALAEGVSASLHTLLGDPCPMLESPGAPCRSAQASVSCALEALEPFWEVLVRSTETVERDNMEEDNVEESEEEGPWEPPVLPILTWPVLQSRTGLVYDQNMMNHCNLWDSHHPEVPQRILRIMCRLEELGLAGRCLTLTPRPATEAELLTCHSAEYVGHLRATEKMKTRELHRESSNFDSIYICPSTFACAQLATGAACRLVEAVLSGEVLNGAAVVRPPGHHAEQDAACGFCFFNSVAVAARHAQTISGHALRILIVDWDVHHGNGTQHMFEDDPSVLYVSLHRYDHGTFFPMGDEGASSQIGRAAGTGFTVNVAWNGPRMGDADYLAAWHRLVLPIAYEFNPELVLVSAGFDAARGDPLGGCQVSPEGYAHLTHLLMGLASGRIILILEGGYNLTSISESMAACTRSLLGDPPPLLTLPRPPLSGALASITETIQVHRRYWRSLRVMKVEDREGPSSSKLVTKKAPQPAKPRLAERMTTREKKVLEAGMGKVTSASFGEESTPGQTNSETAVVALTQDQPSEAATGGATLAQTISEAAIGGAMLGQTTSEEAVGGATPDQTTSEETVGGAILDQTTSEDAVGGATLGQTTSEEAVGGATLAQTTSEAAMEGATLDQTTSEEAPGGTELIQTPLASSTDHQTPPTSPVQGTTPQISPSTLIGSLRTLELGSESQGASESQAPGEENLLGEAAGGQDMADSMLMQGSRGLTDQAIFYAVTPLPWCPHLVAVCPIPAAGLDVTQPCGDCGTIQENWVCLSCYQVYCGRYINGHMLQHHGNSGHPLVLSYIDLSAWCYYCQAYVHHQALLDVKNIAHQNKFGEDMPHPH
Put plainly: HDAC6 enzyme activity inhibition (fluorimetric, in vitro). It counts as biochemical. As to conditions: 37° C., 60 minutes; tested at 0.1, 1, 10, 100 and 1000 nM. How it is done:
(§1) 1. Experiment on Activities in HDAC Enzymes (HDAC1 and HDAC6)
(§2) Assays were performed using a HDAC1 fluorimetric drug discovery assay kit (Enzolifesciences: BML-AK511) and a HDAC6 human recombinant (Calbiochem: 382180). The assay mixture of the kit was treated with each of the compounds of the Examples at concentrations 100, 1000 and 10000 nM for HDAC1 assay and 0.1, 1, 10, 100 and 1000 nM for HDAC6 assay. The treated assay mixture was allowed to react at 37° C. for 60 minutes, and then was treated with a developer and allowed to stand at 37° C. for 30 minutes, followed by quantification of the fluorescence. In Table 17, lower HDAC6 values (μM) indicate higher HDAC6 inhibitory activities of the compounds. Also, because selective HDAC6 inhibitors should not inhibit HDAC1 (μM), higher HDAC1 values indicate higher HDAC6 selectivity of the compounds.

Another assay has as its target T2, HDAC1 (Homo sapiens, UniProt Q13547).
T2 construct: purchased Enzolifesciences BML-AK511
Put plainly: HDAC1 enzyme activity inhibition (HDAC1 fluorimetric drug discovery assay kit). It counts as biochemical. To be noted: 37° C., 60 minutes; tested at 100, 1000 and 10000 nM. The method, then:
as §1, §2

Here are results for 25 compounds from patent US20160355475A1, “NOVEL INDOLE DERIVATIVE COMPOUND AND PHARMACEUTICAL COMPOSITION COMPRISING THE SAME” (CHONG KUN DANG PHARMACEUTICAL CORP., priority 2014, published 2016).

Usually IC50 stands for the concentration needed to halve the response being measured.

T2 sequence (Q13547 whole entry): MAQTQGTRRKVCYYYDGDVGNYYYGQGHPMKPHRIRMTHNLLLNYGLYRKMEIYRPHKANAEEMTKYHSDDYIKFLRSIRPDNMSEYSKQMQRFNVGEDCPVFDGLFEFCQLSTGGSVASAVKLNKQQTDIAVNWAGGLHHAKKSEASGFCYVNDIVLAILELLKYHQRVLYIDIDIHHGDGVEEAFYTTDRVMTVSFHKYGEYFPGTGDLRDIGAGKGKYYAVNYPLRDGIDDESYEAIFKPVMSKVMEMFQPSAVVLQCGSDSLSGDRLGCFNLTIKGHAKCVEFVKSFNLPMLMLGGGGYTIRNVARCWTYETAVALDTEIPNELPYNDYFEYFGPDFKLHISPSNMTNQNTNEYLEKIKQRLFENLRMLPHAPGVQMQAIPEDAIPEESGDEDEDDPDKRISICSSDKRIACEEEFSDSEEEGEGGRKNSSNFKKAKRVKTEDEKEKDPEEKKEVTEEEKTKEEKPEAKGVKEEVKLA

As to `Cc1c(Cc2ccc(C(=O)NO)cc2)c2ccccc2n1CCN1CCOCC1` [Compound 153, N-hydroxy-4-((2-methyl-1-(2-morpholinoethyl)-1H-indol-3-yl)methyl)benzamide], the IC50 is 140 nM at HDAC6 human recombinant and 4380 nM against HDAC1. Regarding `Cc1c(Cc2ccc(C(=O)NO)cc2)c2ccccc2n1CCN1CCN(C)CC1` [Compound 154, N-hydroxy-4-((2-methyl-1-(2-(4-methylpiperazin-1-yl)ethyl)-1H-indol-3-yl)methyl)benzamide], the IC50 on HDAC6 human recombinant turned out to be 8 nM; against HDAC1, 2220 nM.

On to `O=C(NO)c1ccc(Cc2c(CN3CCOCC3)[nH]c3ccccc23)cc1` [Compound 155, N-hydroxy-4-((2-(morpholinomethyl)-1H-indol-3-yl)methyl)benzamide], for which the results for the IC50 on HDAC6 human recombinant and against HDAC1 were 24 nM and 3860 nM, respectively. For the compound `Cc1c(Cc2ccc(C(=O)NO)cc2)c2ccccc2n1CCN1CCN(C(C)C)CC1` [Compound 196, N-hydroxy-4-((1-(2-(4-isopropylpiperazin-1-yl)ethyl)-2-methyl-1H-indol-3-yl)methyl)benzamide], the figures for the IC50 on HDAC6 human recombinant and against HDAC1 were 6 nM and 1610 nM, respectively.

As for `Cc1c(Cc2ccc(C(=O)NO)cc2)c2ccccc2n1CCN1CCN(CCO)CC1` [Compound 197, N-hydroxy-4-((1-(2-(4-(2-hydroxyethyl)piperazin-1-yl)ethyl)-2-methyl-1H-indol-3-yl)methyl)benzamide], the IC50 was found to be 8 nM at HDAC6 human recombinant and 1810 nM on HDAC1. Take `COCCN1CCN(CCn2c(C)c(Cc3ccc(C(=O)NO)cc3)c3ccccc32)CC1` [Compound 198, N-hydroxy-4-((1-(2-(4-(2-methoxyethyl)piperazin-1-yl)ethyl)-2-methyl-1H-indol-3-yl)methyl)benzamide]: the IC50 at HDAC6 human recombinant came out at 5 nM; at HDAC1 it was 1890 nM. In the case of `Cc1c(Cc2ccc(C(=O)NO)cc2)c2ccccc2n1CCN1CCC[C@H]1CO` [Compound 199, (S)—N-hydroxy-4-((1-(2-(2-(hydroxymethyl)pyrrolidin-1-yl)ethyl)-2-methyl-1H-indol-3-yl)methyl)benzamide], the results for the IC50 at HDAC6 human recombinant and on HDAC1 were 4 nM and 1260 nM, respectively.

As to `Cc1c(Cc2ccc(C(=O)NO)cn2)c2ccccc2n1CCN1CCN(C)CC1` [Compound 243, N-hydroxy-6-((2-methyl-1-(2-(4-methylpeperazin-1-yl)ethyl)-1H-indol-3-yl)methyl)nicotinamide], the half-inhibitory concentration (IC50) at HDAC6 human recombinant is 340 nM. Consider `Cc1c(Cc2ccc(C(=O)NO)cn2)c2ccccc2n1CCN1CCOCC1` [Compound 244, N-hydroxy-6-((2-methyl-1-(2-morpholinoethyl)-1H-indol-3-yl)methyl)nocotinamide], for which the IC50 on HDAC6 human recombinant came out at 236 nM. Consider `Cc1c(Cc2ccc(C(=O)NO)cc2)c2ccccc2n1CCN1CCCC(F)C1` (centres unmarked) [Compound 550, 4-((1-(2-(3-fluoropiperidin-1-yl)ethyl)-2-methyl-1H-indol-3-yl)methyl)-N-hydroxybenzamide], for which the IC50 on HDAC6 human recombinant turned out to be 68 nM. In the case of `Cc1c(Cc2ccc(C(=O)NO)cc2)c2ccccc2n1CCN1CCC[C@H]1CF` [Compound 551, (S)-4-((1-(2-(2-(fluoromethyl)pyrrolidin-1-yl)ethyl)-2-methyl-1H-indol-3-yl)methyl)-N-hydroxybenzamide], the IC50 at HDAC6 human recombinant was determined as 82 nM. Consider `Cc1c(Cc2ccc(C(=O)NO)cc2)c2ccccc2n1CC1CCN(Cc2ccccc2)CC1` [Compound 556, 4-((1-((1-Benzylpiperidin-4-yl)methyl)-2-methyl-1H-indol-3-yl)methyl)-N-hydroxybenzamide], for which the IC50 on HDAC6 human recombinant was 108 nM. For `Cc1c(Cc2ccc(C(=O)NO)cc2)c2ccccc2n1CC1CCN(CCc2ccccc2)CC1` [Compound 559, N-hydroxy-4-((2-methyl-1-((1-phenethylpiperidin-4-yl)methyl)-1H-indol-3-yl)methyl)benzamide], the IC50 at HDAC6 human recombinant was 273 nM. As for `Cc1c(Cc2ccc(C(=O)NO)cc2F)c2ccccc2n1CC1CCN(CC(C)(C)F)CC1` [Compound 562, 3-Fluoro-4-((1-((1-(2-fluoro-2-methylpropyl)piperidin-4-yl)methyl)-2-methyl-1H-indol-3-yl)methyl)-N-hydroxybenzamide], the IC50 on HDAC6 human recombinant is 87 nM. On the same count and under the same terms, for `Cc1c(Cc2ccc(C(=O)NO)cc2)c2ccccc2n1CCC1CCN(CC(C)(C)F)CC1` [Compound 563, 4-((1-(2-(1-(2-Fluoro-2-methylpropyl)piperidin-4-yl)ethyl)-2-methyl-1H-indol-3-yl)methyl)-N-hydroxybenzamide] the value was 307 nM; for `Cc1c(Cc2ccc(C(=O)NO)cc2)c2ccccc2n1CC1CCN(CC2(F)CCOCC2)CC1` [Compound 584, 4-((1-((1-((4-Fluoro-tetrahydro-2H-pyran-4-yl)methyl)piperidin-4-yl)methyl)-2-methyl-1H-indol-3-yl)methyl)-N-hydroxybenzamide], 7 nM; for `CC(C)(F)CN1CCC(Cn2cc(Cc3ccc(C(=O)NO)cc3)c3ccccc32)CC1` [Compound 614, 4-((1-((1-(2-Fluoro-2-methylpropyl)piperidin-4-yl)methyl)-1H-indol-3-yl)methyl)-N-hydroxybenzamide], 150 nM. On the same count and under the same terms, for `CC(C)(F)CN1CCC(Cn2c(-c3ccccc3)c(Cc3ccc(C(=O)NO)cc3)c3ccccc32)CC1` [Compound 616, 4-((1-((1-(2-Fluoro-2-methylpropyl)piperidin-4-yl)methyl)-2-phenyl-1H-indol-3-yl)methyl)-N-hydroxybenzamide] the value was 821 nM; for `Cc1c(Cc2ccc(C(=O)NO)cc2)c2ccccc2n1CC1CCN(Cc2ccncc2)CC1` [Compound 621, N-hydroxy-4-((2-methyl-1-((1-(pyridin-4-ylmethyl)piperidin-4-yl)methyl)-1H-indol-3-yl)methyl)benzamide], 89 nM. On to `Cc1c(Cc2ccc(C(=O)NO)cc2)c2ccccc2n1CC1CCN(Cc2ccc(F)cc2)CC1` [Compound 622, 4-((1-((1-(4-Fluorobenzyl)piperidin-4-yl)methyl)-2-methyl-1H-indol-3-yl)methyl)-N-hydroxybenzamide], for which the IC50 at HDAC6 human recombinant is 90 nM. For `CC(C)(F)CN1CCC(Cn2c(C3=CCOCC3)c(Cc3ccc(C(=O)NO)cc3)c3ccccc32)CC1` [Compound 627, 4-((2-(3,6-Dihydro-2H-pyran-4-yl)-1-((1-(2-fluoro-2-methylpropyl)piperidin-4-yl)methyl)-1H-indol-3-yl)methyl)-N-hydroxybenzamide], the IC50 on HDAC6 human recombinant was 352 nM. In the case of `Cc1c(Cc2ccc(C(=O)NO)cc2)c2ccccc2n1CC1CCN(CC2(F)CCN(C(=O)NC(C)C)CC2)CC1` [Compound 695, 4-Fluoro-4-((4-((3-(4-(hydroxycarbamoyl)benzyl)-2-methyl-1H-indol-1-yl)methyl)piperidin-1-yl)methyl)-N-isopropylpiperidine-1-carboxamide], at HDAC6 human recombinant, the IC50 amounted to 24 nM. With `CC(C)(F)CN1CCC(Cn2cc(Cc3ccc(C(=O)NO)cc3)c3c(F)cccc32)CC1` [Compound 707, 4-((4-Fluoro-1-((1-(2-fluoro-2-methylpropyl)piperidin-4-yl)methyl)-1H-indol-3-yl)methyl)-N-hydroxybenzamide], on HDAC6 human recombinant, the IC50 is 171 nM. On the same count and under the same terms, for `CC(C)(F)CN1CCC(Cn2cc(Cc3ccc(C(=O)NO)cc3)c3ccc(F)cc32)CC1` [Compound 708, 4-((6-Fluoro-1-((1-(2-fluoro-2-methylpropyl)piperidin-4-yl)methyl)-1H-indol-3-yl)methyl)-N-hydroxybenzamide] the value was 432 nM; for `Cc1c(Cc2ccc(C(=O)NO)cc2)c2ccccc2n1CC1CN(CC(C)(C)F)C1` [Compound 750, 4-((1-((1-(2-Fluoro-2-methylpropyl)azetidin-3-yl)methyl)-2-methyl-1H-indol-3-yl)methyl)-N-hydroxybenzamide], 114 nM.
